Test [1] has as its system N. gonorrhoeae ATCC 49226. In words: Test for evaluating antibacterial activity (N. gonorrhoeae), broth microdilution MIC. The conditions noted are these: Neisseria gonorrhoeae, ATCC49226; 35° C., 24 hours, gonococcal broth. Type of test: cell-based. The procedure, abridged: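 Broth microdilution in gonococcal broth with 1% supplement C, inoculum from overnight chocolate II agar culture at McFarland 0.5 diluted 5-fold.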
For orientation: Dilution methods test growth across graded concentrations, often in twofold steps.

Test [2] deals with T1, E. coli DNA gyrase (Escherichia coli, UniProt P0AES6).
T1 construct: made in house; host or cells: E. coli BL21 (DE3)
In words: Test for evaluating the activity of inhibiting E. coli DNA gyrase enzyme (Method 1, supercoiling, Inspiralis enzyme). Format: biochemical. The procedure: Test Example 1-1 Test for Evaluating the Activity of Inhibiting E. coli DNA Gyrase Enzyme (Method 1)
The enzymatic activity of E. coli DNA gyrase was measured by a method comprising reacting DNA gyrase and its substrate, relaxed pBR322 (Inspiralis), in the presence of ATP and detecting the post-reaction supercoiled pBR322/relaxed pBR322 ratio with H19 (Profoldin).
Specifically, to 1 ng/μL of relaxed pBR322, E. coli DNA gyrase enzyme (Inspiralis) was added at a final concentration of 0.006 U/μL and the mixture was incubated for 60 minutes at room temperature. This reaction was carried out in 20 mmol/L tris-HCl buffered solution (pH 8.0) comprising 0.5 mmol/L ATP, 0.005% bridge 35, 35 mmol/L ammonium acetate, 8 mmol/L magnesium chloride, 4.6% glycerol, and 1 mmol/L dithiothreitol. To the reaction mixture, H19 was added to bring the reaction to an end; thereafter, the supercoiled pBR322/relaxed pBR322 ratio was detected at excitation wavelength/emission wavelength=485 nm/535 nm. An inhibition curve was obtained by allowing the analyte compound to be present at varying concentrations during the reaction described above. […] The test results of interest are shown in [Table 20-1] and [Table 20-2].

Test [3] relates to E. Coli ATCC 25922. Put plainly: Test for evaluating antibacterial activity (E. coli), broth microdilution MIC. Format: cell-based. The conditions noted are these: Escherichia coli, ATCC25922; 35° C., 18 hours, cation-adjusted Mueller-Hinton medium. The procedure, abridged: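 Broth microdilution per modified CLSI method in cation-adjusted Mueller-Hinton medium. Inoculum from overnight heart infusion agar growth, McFarland 0.5 suspension diluted 10-fold; incubation 35° C for 18 hours. MIC taken as lowest drug concentration with no visible growth.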

Setting [4] is: Method 1, read-out: E. Coli Gyrase supercoiling IC50.

The structures appear in SMILES notation. ≈ marks a conversion by molar mass, not a printed value. Counter-ions that a name gives are not always drawn. Like-named read-outs stand apart in the source and are kept apart here.

As a reminder, the MIC is the least concentration at which growth counts as inhibited. A higher MIC goes with a need for much substance. For orientation: IC50 means the concentration that gives 50% inhibition.

Take `CNc1cccc2cc(C(=O)NC3CCN(c4ncc(C(=O)O)s4)CC3)c(=O)[nH]c12` [Example 3, 2-(4-{[8-(methylamino)-2-oxo-1,2-dihydroquinoline-3-carbonyl]amino}piperidine-1-yl)-1,3-thiazole-5-carboxylic acid]: the values for the MIC in test [1] and in test [3] were more than 4 µg/mL and more than 64 µg/mL, respectively. Moreover, in test [2] (setting [4]), the IC50 is 124 nM.
Consider `CNc1cccc2cc(C(=O)Nc3ccccc3CN(C)C3CCCCC3)c(=O)[nH]c12` [Example 7, N-(2-[[Cyclohexyl(methyl)amino]methyl]phenyl)-8-(methylamino)-2-oxo-1,2-dihydroquinoline-3-carboxamide], for which the figures for the MIC in test [1] and in test [3] were more than 4 µg/mL and more than 32 µg/mL, respectively. Also, in test [2] (setting [4]), the IC50 turned out to be 3.35 nM.
For `CNc1cccc2cc(C(=O)NCc3ccc(C(=O)O)cc3C)c(=O)[nH]c12` [Example 8, 3-methyl-4-({[8-(methylamino)-2-oxo-1,2-dihydroquinoline-3-carbonyl]amino}methyl)benzoic acid], the MIC is 4 µg/mL (≈ 10.9 µM) in test [1] and more than 64 µg/mL in test [3]. Moreover, the concentration for half-maximal inhibition (IC50) in test [2] (setting [4]) was found to be 30.1 nM.
In test [1], `CNc1cccc2cc(C(=O)NCc3noc(=O)[nH]3)c(=O)[nH]c12` [Example 14, 8-(methylamino)-2-oxo-N-[(5-oxo-4,5-dihydro-1,2,4-oxadiazole-3-yl)methyl]-1,2-dihydroquinoline-3-carboxamide] showed an MIC of more than 4 µg/mL. For the same compound, the IC50 in test [2] (setting [4]) is 35500 nM.
`CNc1cccc2cc(C(=O)Nc3cccc(=O)[nH]3)c(=O)[nH]c12` [Example 16, 8-(methylamino)-2-oxo-N-(6-oxo-1,6-dihydro-pyridine-2-yl)-1,2-dihydroquinoline-3-carboxamide]: the MIC in test [1] was more than 4 µg/mL; in test [3] it was more than 64 µg/mL. Besides, the IC50 in test [2] (setting [4]) was 131 nM.
For the compound `CNc1nccc2cc(C(=O)Nc3ccc(C(=O)O)cc3)c(=O)[nH]c12` [Example 17, 4-[[8-(Methylamino)-2-oxo-1,2-dihydro-1,7-naphthyridine-3-carbonyl]amino]benzoic Acid], the MIC is more than 1 µg/mL in test [1] and more than 64 µg/mL in test [3]. Also, in test [2] (setting [4]), the IC50 came to 293 nM.
Consider `CNc1cccc2cc(C(=O)Nc3ccc(C(=O)O)cc3OCCCN)c(=O)[nH]c12.O=CO` [Example 48, 3-(3-aminopropoxy)-4-{[8-(methylamino)-2-oxo-1,2-dihydroquinoline-3-carbonyl]amino} benzoic acid-formate], for which, in test [2], the IC50 was found to be 286 nM. Further, the MIC in test [3] is more than 16 µg/mL.
Take `CNc1cccc2cc(C(=O)Nc3ccc(C(=O)NCCC[C@H](N)C(=O)O)cc3)c(=O)[nH]c12` [Example 49, N5-(4-{[8-(methylamino)-2-oxo-1,2-dihydroquinoline-3-carbonyl]amino}benzoyl)-L-ornithine]: the IC50 in test [2] (setting [4]) stood at 20.4 nM. This compound had an MIC in test [3] of more than 8 µg/mL.
In the case of `CNc1cc(F)cc2cc(C(=O)Nc3cnc(NCCN4CCN(C)CC4)nc3)c(=O)[nH]c12` [Example 51, 6-fluoro-8-(methylamino)-N-(2-{[2-(4-methylpiperazine-1-yl)ethyl]amino}pyrimidine-5-yl)-2-oxo-1,2-dihydroquinoline-3-carboxamide], the IC50 in test [2] (setting [4]) amounted to 5.46 nM. The compound further came in with an MIC in test [3] of 16 µg/mL (≈ 35.2 µM).
For the compound `CNc1cc(F)cc2cc(C(=O)Nc3cnc(C(=O)NCCN4CCOCC4)nc3)c(=O)[nH]c12` [Example 53, 6-fluoro-8-(methylamino)-N-(2-{[2-(morpholine-4-yl)ethyl]carbamoyl}pyrimidine-5-yl)-2-oxo-1,2-dihydroquinoline-3-carboxamide], in test [2] (setting [4]), the IC50 is 1.49 nM. In test [3], this compound returned an MIC of 0.25 µg/mL (≈ 0.533 µM).
In test [2], `CNc1cc(F)cc2cc(C(=O)Nc3cnc(N4CCNCC4)nc3)c(=O)[nH]c12.Cl` [Example 55, 6-Fluoro-8-(methylamino)-2-oxo-N-[2-(piperazin-1-yl)pyrimidin-5-yl]-1,2-dihydroquinoline-3-carboxamide-hydrochloride] yielded an IC50 of 14.7 nM. This compound gave an MIC in test [3] of more than 16 µg/mL.
On to `CNc1cc(F)cc2cc(C(=O)Nc3ccc(C(=O)NCC4CCN(CCN)CC4)cc3)c(=O)[nH]c12` [Example 57, N-(4-({[1-(2-aminoethyl)piperidine-4-yl]methyl}carbamoyl)phenyl]-6-fluoro-8-(methylamino)-2-oxo-1,2-dihydroquinoline-3-carboxamide-dihydrochloride], for which the IC50 in test [2] (setting [4]) worked out at 3.62 nM. The compound also displayed an MIC in test [3] of more than 16 µg/mL.
Turning to `CNc1cc(F)cc2cc(C(=O)Nc3cnc(NCCN)nc3)c(=O)[nH]c12.O=CO` [Example 59, N-{2-[(2-aminoethyl)amino]pyrimidine-5-yl}-6-fluoro-8-(methylamino)-2-oxo-1,2-dihydroquinoline-3-carboxamide-formate], in test [2], the IC50 is 14.7 nM. For the same compound, the MIC in test [3] was more than 2 µg/mL.
On the same counts, the results for `CNc1cc(F)cc2cc(C(=O)Nc3cnc(N4CC(N)C4)nc3)c(=O)[nH]c12.O=CO` [Example 60, N-[2-(3-aminoazetidine-1-yl)pyrimidine-5-yl]-6-fluoro-8-(methylamino)-2-oxo-1,2-dihydroquinoline-3-carboxamide-formate] are 11.8 nM and more than 32 µg/mL.
As to `CNc1cc(F)cc2cc(C(=O)Nc3cnc(C(=O)OC)nc3)c(=O)[nH]c12` [Example 63, methyl 5-{[6-fluoro-8-(methylamino)-2-oxo-1,2-dihydroquinoline-3-carbonyl]amino}pyrimidine-2-carboxylate], inhibition in test [2] was half-maximal at 1.44 nM (IC50). The MIC in test [3] was more than 16 µg/mL.
Turning to `CNc1cc(F)cc2cc(C(=O)NCCc3cccnc3)c(=O)[nH]c12` [Example 64, 6-fluoro-8-(methylamino)-2-oxo-N-[2-(pyridine-3-yl)ethyl]-1,2-dihydroquinoline-3-carboxamide], the IC50 in test [2] (setting [4]) turned out to be 44.7 nM. The MIC in test [3] was more than 8 µg/mL.
On the same counts, the results for `CNc1cc(F)cc2cc(C(=O)Nc3ccc(C(=O)N(C)CCN4CCOCC4)cc3)c(=O)[nH]c12` [Example 67, 6-fluoro-8-(methylamino)-N-(4-{methyl[2-(morpholine-4-yl)ethyl]carbamoyl}phenyl)-2-oxo-1,2-dihydroquinoline-3-carboxamide] are 6.36 nM and more than 16 µg/mL.
As to `CNc1cc(F)cc2cc(C(=O)Nc3ccc(C(=O)NCCN)cc3)c(=O)[nH]c12.Cl` [Example 68, N-(4-[(2-aminoethyl)carbamoyl]phenyl}-6-fluoro-8-(methylamino)-2-oxo-1,2-dihydroquinoline-3-carboxamide-hydrochloride], 9.4 nM corresponded to half-maximal inhibition in test [2] (IC50). For the same compound, the MIC in test [3] is more than 8 µg/mL.
Consider `CNc1cc(F)cc2cc(C(=O)Nc3cnc(NCCN4CCOCC4)nc3)c(=O)[nH]c12` [Example 69, 6-fluoro-8-(methylamino)-N-(2-{[2-(morpholine-4-yl)ethyl]amino}pyrimidine-5-yl)-2-oxo-1,2-dihydroquinoline-3-carboxamide], for which the IC50 in test [2] (setting [4]) was determined as 7 nM. Further, the lowest concentration to inhibit growth in test [3] (MIC) was 8 µg/mL (≈ 18.1 µM).
With `CNc1cc(F)cc2cc(C(=O)Nc3cnc(C(=O)NCCO)nc3)c(=O)[nH]c12` [Example 71, 6-Fluoro-N-[2-[(2-hydroxyethyl)carbamoyl]pyrimidin-5-yl]-8-(methylamino)-2-oxo-1,2-dihydroquinoline-3-carboxamide], the IC50 in test [2] (setting [4]) is 0.88 nM. In test [3], this compound displayed an MIC of more than 8 µg/mL.
On to `CNc1cc(F)cc2cc(C(=O)Nc3cnccc3C)c(=O)[nH]c12` [Example 73, 6-fluoro-8-(methylamino)-N-(4-methylpyridine-3-yl)-2-oxo-1,2-dihydroquinoline-3-carboxamide], for which the IC50 in test [2] (setting [4]) worked out at 23 nM. In addition, the MIC in test [3] is more than 8 µg/mL.
For `CNc1cc(F)cc2cc(C(=O)Nc3ccc(C(=O)O)cc3CNCCO)c(=O)[nH]c12` [Example 74, 4-{[6-fluoro-8-(methylamino)-2-oxo-1,2-dihydroquinoline-3-catbonyl]amino}-3-{[(2-hydroxyethyl)amino]methyl} benzoic acid-hydrochloride], the IC50 in test [2] (setting [4]) was 129 nM. This compound also showed an MIC in test [3] of more than 64 µg/mL.
As to `CNc1cc(F)cc2cc(C(=O)Nc3ccc(C(=O)NCCN4CCOCC4)cc3CN(C)C3CCCCC3)c(=O)[nH]c12` [Example 75, N-(2-{[cyclohexyl(methyl)amino]methyl}-4-{[2-(morpholine-4-yl)ethyl]carbamoyl}phenyl)-6-fluoro-8-(methylamino)-2-oxo-1,2-dihydroquinoline-3-carboxamide], in test [2] (setting [4]), the IC50 was determined as 0.25 nM. The compound also yielded an MIC in test [3] of 8 µg/mL (≈ 13.5 µM).
Take `CNc1cc(F)cc2cc(C(=O)Nc3cnc(OCCN4CCOCC4)nc3)c(=O)[nH]c12` [Example 80, 6-fluoro-8-(methylamino)-N-{2-[2-(morpholine-4-yl)ethoxy]pyrimidine-5-yl}-2-oxo-1,2-dihydroquinoline-3-carboxamide]: in test [2] (setting [4]), the concentration for half-maximal inhibition (IC50) came out at 2.5 nM. Besides, in test [3], the MIC was more than 16 µg/mL.

These data come from patent publication US20210070747A1, “2(1H)-QUINOLINONE DERIVATIVE” (priority 2017, published 2021).
